Data taken from patent publication US20150209384A1, “ORAL PREPARATION FOR PROMOTING EXPRESSION OF TGF-BETA, ORAL PREPARATION FOR INHIBITING PRODUCTION OF PAIN-MEDIATING SUBSTANCE, AND ORAL PREPARATION FOR PREVENTING EDEMA” (KEWPIE CORPORATION, priority 2012, published 2015).

How the values were obtained:
[1] = test system: TGF-β1; assay: Measurement of TGF-β1 in plasma (ELISA), rat carrageenan model; type: in vivo; conditions: 6 hours after carrageenan induction, FIG. 4
Procedure: (§1) Rats (Wistar (SPF), male, four-weeks-old at the time of purchase, purchased from Japan SLC, Inc.) were acclimatized and fed for 7 days, and then grouped based on their body weights on the day before administration. The above-mentioned test solution was administered by drinking ad libitum for 4 weeks. After the administration by drinking for 4 weeks, the rats were selected and grouped so that there was no difference in body weight between groups at the time of carrageenan induction (see Table 1), and then the rats were each used for a pain model to be described later.
A rat pain model was produced by subcutaneously injecting 0.1 mL of a 1% A-carrageenan (manufactured by SIGMA) solution into the plantar surface of the rat hind paw with reference to methods of Ohuchi et al. (Kazuo Ohuchi, “Seibutsu Yakkagaku Jikken Koza (Biological pharmaceutical science experimental course) (Vol. 12) Inflammation and Allergy I-1”, Chapter 1, foreign matter-induced inflammation model: pp. 30-51) and Masahiro Noguchi et al. (Masahiro Noguchi, et al: Enzymologic and pharmacologic profile of loxoprofen sodium and its metabolites. Biol. Pharm. Bull. 2005.28.2075-2079). It should be noted that the 1% λ-carrageenan solution was stirred with a stirrer until immediately before use (induction). After that, a paw volume was measured using a paw volume measuring apparatus. […]

[2] = test system: PGE2; assay: Measurement of PGE2 in paw exudate (ELISA), rat carrageenan model; type: in vivo; conditions: vs negative control; for total amount of PGE2 in exudate: FIG. 7; for concentration of PGE2 in exudate: FIG. 8
Procedure: as §1
(§2) A rat pain model was produced by subcutaneously injecting 0.1 mL of a 1% A-carrageenan (manufactured by SIGMA) solution into the plantar surface of the rat hind paw with reference to methods of Ohuchi et al. (Kazuo Ohuchi, “Seibutsu Yakkagaku Jikken Koza (Biological pharmaceutical science experimental course) (Vol. 12) Inflammation and Allergy I-1”, Chapter 1, foreign matter-induced inflammation model: pp. 30-51) and Masahiro Noguchi et al. (Masahiro Noguchi, et al: Enzymologic and pharmacologic profile of loxoprofen sodium and its metabolites. Biol. Pharm. Bull. 2005.28.2075-2079). It should be noted that the 1% λ-carrageenan solution was stirred with a stirrer until immediately before use (induction). After that, a paw volume was measured using a paw volume measuring apparatus. In addition, blood was collected from the rat pain model under isoflurane anesthesia. After that, an exudate was collected from the hind paw, and the measurement of PGE2 and bradykinin in the exudate was performed.
(§3) A 15-mL centrifugation tube, which had been measured for its tare weight in advance, was prepared, and a container having a 2-mL pipette tip cut at the tip in the centrifugation tube was prepared. The induced paw of the animal after the end of the blood collection was amputated from 1 cm above the malleolus using bone scissors or the like, and measured for its weight. The skin at the plantar site of the rat was deeply incised using a scalpel to make 2 incisions in a length direction by 4 incisions in a width direction which is perpendicular to the length direction. This paw skin tissue was placed with the toe down into the above-mentioned container, and cooling centrifugation was performed using a centrifugation machine at 3,000 rpm for 15 minutes to collect an exudate. In addition, in a non-treated group, the collection was performed from the left and right hind paws. The mass of the collected exudate was measured using an electrobalance. To the exudate after the end of the mass measurement were added 100 μL of 20 mM aspirin-containing physiological saline and 250 μL of 20 unit/mL heparin-containing physiological saline, the resultant was centrifuged, and then the supernatant was used as an exudate sample. In addition, the exudate was dispensed into a tube. The exudate sample was frozen with liquid nitrogen and cryopreserved until use.
The measurement of PGE2 (ELISA) in the exudate was performed using “Prostaglandin E2 Kit-Monoclonal, ACE.” The operations were performed in conformity with the accompanying protocol of the kit.

[3] = Measurement of concentration of hyaluronic acid in plasma; type: in vivo, rat
Procedure: as §1
(§4) The rat pain model under anesthesia with isoflurane (manufactured by Mylan Pharmaceuticals, Inc.) was subjected to abdominal section, and blood was collected through the caudal vena cava of the abdomen. A 5-mL disposable injection syringe filled with heparin sodium (Wako Pure Chemical Industries, Ltd.) and a 22-G injection needle were used for the blood collection. Plasma was rapidly separated from the collected blood using a centrifuge, dispensed into a tube, and cryopreserved until use.
The measurement of the concentration of hyaluronic acid in plasma was performed using “Hyaluronan Assay Kit (Seikagaku Biobusiness Corporation).”
The concentrations of hyaluronic acid in plasma of the negative control (distilled water-administered group) and the test solution-administered group were measured. The concentrations of hyaluronic acid in plasma were measured before carrageenan induction and 6 hours and 8 hours after carrageenan induction.

[4] = test system: IL-10; assay: Measurement of IL-10 in plasma, rat carrageenan model; type: in vivo; conditions: oral hyaluronic acid 200 mg/kg/day 4 weeks
Procedure: as §1, §4
The measurement of IL-10 in plasma was performed using “Quantikine Rat IL-10 (R & D Systems, Inc.).” The operations were performed in conformity with the accompanying protocol of the kit.

[5] = test system: rat carrageenan-induced inflammatory pain model; assay: Rat carrageenan-induced inflammatory pain model: paw edema, paw volume, exudate amount; type: in vivo; conditions: for paw edema: vs negative control (distilled water), hyaluronic acid 200 mg/kg/day by drinking for 4 weeks, ibuprofen 100 mg/kg oral 1 hour before induction, FIG. 1; for exudate amount of the paw: FIG. 3
Procedure: Rats (Wistar (SPF), male, four-weeks-old at the time of purchase, purchased from Japan SLC, Inc.) were acclimatized and fed for 7 days, and then grouped based on their body weights on the day before administration. The above-mentioned test solution was administered by drinking ad libitum for 4 weeks.
It should be noted that the 1% λ-carrageenan solution was stirred with a stirrer until immediately before use (induction). After that, a paw volume was measured using a paw volume measuring apparatus. In addition, blood was collected from the rat pain model under isoflurane anesthesia. After that, an exudate was collected from the hind paw, and the measurement of PGE2 and bradykinin in the exudate was performed.
The tuberal region of the pisiform bone outside the rat right hind paw was marked with marking ink so that volume measurement was uniform. Distilled water was charged up to a target water surface of a measuring chamber of the paw volume measuring apparatus. A measurer restrained the rat, and while lightly pressing the femoral region of the paw to be measured, put the paw at a position at which the mark leveled off and reached the target water surface. Then, a paw volume was recorded using a foot switch connected to the apparatus. It should be noted that the measurement of the paw volume was performed three times for each animal individual, and a mean thereof was determined.
Regarding a measured value for the paw volume, an amount of change Δ mL was determined from the following calculation equation for each individual animal, and a group mean and its standard error (SE) were calculated.
Amount of change A mL=Value at the time of each measurement after carrageenan administration−Value before (0 hours after) carrageenan administration
as §3

[6] = test system: bradykinin; assay: Measurement of bradykinin in paw exudate (EIA), rat carrageenan model; type: in vivo; conditions: for total amount of bradykinin in exudate: vs negative control, FIG. 5
Procedure: as §1, §2, §3
The measurement of bradykinin in the exudate was performed using “Bradykinin, EIA Kit, High Sensitivity, Bachem Americans.” The operations were performed in conformity with the accompanying protocol of the kit.

[7] = test system: TGF-β1 mRNA in human colon adenocarcinoma-derived HT29 cells; assay: TGF-β expression promoting action in HT29 cells (TGF-β1 mRNA, real-time PCR); type: cell-based; conditions: hyaluronic acid 0.01 mg/ml, LPS 200 ng/mL added 1 hour later, 24 hours after addition of hyaluronic acid, control = 1, FIG. 11
Procedure: In order to confirm the TGF-β expression promoting action of hyaluronic acid in human colon adenocarcinoma-derived HT29 cells (purchased from DS Pharma Biomedical Co., Ltd.), the measurement of the production amount of TGF-β mRNA in the case of treating HT29 cells with hyaluronic acid was performed by the following method.
Hyaluronic acid was added to a culture supernatant, and 1 hour after that, a lipopolysaccharide (LPS) was added at a concentration of 200 ng/mL. 23 hours after that, mRNA of cells was collected, and the determination of TGF-β1 mRNA using real-time PCR equipment (Mx 3005, Agilent Technologies) was performed. First, cDNA was synthesized from mRNA by reverse transcription, and a PCR reaction was performed using the cDNA. That is, an amplification reaction involving repeating thermal denaturation (95° C., 10 seconds) and annealing (60° C., 20 seconds) 40 times was performed, and simultaneously, DNA amplification was measured by monitoring fluorescence from CybrGreen to be conjugated with DNA, and determination in the case of defining the mRNA amount of a control as 1 was performed. The human TGF-31 primers used were designed with the software Primer BLAST made available to the public by the National Center for Biotechnology Information (NCBI). Their sequences are 5′-[…]-3′ (Forward) and 5′-[…]-3′ (Reverse). […]

[8] = 6 hours after carrageenan induction
[9] = 6 hours after carrageenan induction, vs negative control, hyaluronic acid 200 mg/kg/day 4 weeks, ibuprofen 100 mg/kg oral
[10] = 6 hours after carrageenan induction, vs negative control (distilled water), FIG. 6
[11] = 3 hours after carrageenan induction

## hyaluronic acid [listing 1 of 2 here]
[1]; same timing
  concentration of TGF-β in plasma compared to positive control (ibuprofen): higher than the concentration of TGF-β in the positive control
[1]; hyaluronic acid 200 mg/kg/day 4 weeks
  concentration of TGF-β in plasma: increased remarkably
[2]; [8]
  total amount of PGE2 in exudate: significantly smaller than that in the negative control
  concentration of PGE2 in exudate: significantly smaller than that in the negative control
[3]; 6 hours after carrageenan induction, FIG. 9
  concentration of hyaluronic acid in plasma: almost no change
[3]; 8 hours after carrageenan induction, FIG. 9
  concentration of hyaluronic acid in plasma: almost no change
[3]; before carrageenan induction, after continuous ingestion for 4 weeks (200 mg/kg/day), FIG. 9 left panel
  concentration of hyaluronic acid in plasma: did not cause any change
[4]
  increase in IL-10 in plasma: not observed
[5]; [8]
  paw edema: milder than in the negative control
[5]; 6 hours after carrageenan induction, vs negative control, hyaluronic acid 200 mg/kg/day 4 weeks, ibuprofen 100 mg/kg oral, FIG. 2
  paw volume: significantly smaller than that in the negative control
[5]; [9]
  exudate amount of the paw: smaller than that in the negative control
[6]; 3 hours after carrageenan induction, vs distilled water group, FIG. 6
  concentration of bradykinin in exudate: significantly smaller than those in the distilled water group
[6]; 3 hours and 6 hours after carrageenan induction, FIG. 6
  concentration of bradykinin in exudate compared to positive control (ibuprofen): lower than those in the positive control
[6]; [10]
  concentration of bradykinin in exudate: significantly smaller than those in the distilled water group
[6]; [8]
  total amount of bradykinin in exudate: significantly smaller than that in the negative control

## CC(C)Cc1ccc(C(C)C(=O)O)cc1 (centres unmarked) [ibuprofen, reference compound]
[2]; [11]
  total amount of PGE2 in exudate: smaller than those in the negative control
  concentration of PGE2 in exudate: significantly smaller than those in the negative control
[2]; [8]
  total amount of PGE2 in exudate: smaller than those in the negative control (statistically significant 6 hours after carrageenan induction)
  concentration of PGE2 in exudate: significantly smaller than those in the negative control
[5]; 3 hours after carrageenan induction, vs negative control, ibuprofen 100 mg/kg oral
  exudate amount of the paw: significantly smaller than those in the negative control
[5]; [8]
  paw edema: milder than in the negative control
[5]; [9]
  exudate amount of the paw: significantly smaller than those in the negative control
[6]; [11]
  total amount of bradykinin in exudate: smaller than those in the negative control
[6]; [10]
  concentration of bradykinin in exudate: significantly smaller concentration of bradykinin than that in the negative control
[6]; [8]
  total amount of bradykinin in exudate: smaller than those in the negative control (statistically significant 6 hours after carrageenan induction)

## hyaluronic acid [listing 2 of 2 here]
[7]
  amount of TGF-β1 mRNA relative to control (no addition of hyaluronic acid): 2.14 times
